Test results: patent publication US7041810B2, “Alpha-2 adrenergic receptor polymorphisms” (University Of Cincinnati, priority 2000, dated 2006)
Changes are numbered by the printed parent chain.

Assays:
[1] = target: T1, Lys251 alpha-2AAR (Homo sapiens, UniProt P08913, N266K); experiment: [35S]GTPγS binding, membranes of COS-7 cells coexpressing Giα2; type: biochemical; parameters: expressed in transfected cells; membranes or intact cells; conditions: 10 μM agonist
T1 sequence (P08913 16-465 N266K): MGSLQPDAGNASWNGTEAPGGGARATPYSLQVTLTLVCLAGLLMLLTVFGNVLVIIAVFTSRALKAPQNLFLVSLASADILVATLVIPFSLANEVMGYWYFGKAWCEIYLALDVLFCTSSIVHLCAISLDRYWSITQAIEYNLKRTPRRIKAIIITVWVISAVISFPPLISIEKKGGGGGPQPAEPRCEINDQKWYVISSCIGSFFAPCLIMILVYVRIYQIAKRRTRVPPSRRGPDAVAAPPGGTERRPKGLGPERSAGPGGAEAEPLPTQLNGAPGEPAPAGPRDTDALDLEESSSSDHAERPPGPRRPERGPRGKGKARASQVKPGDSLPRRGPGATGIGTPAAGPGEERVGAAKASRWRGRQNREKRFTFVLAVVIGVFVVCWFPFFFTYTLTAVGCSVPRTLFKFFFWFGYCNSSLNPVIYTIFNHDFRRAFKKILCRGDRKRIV
Description: Receptor-G protein interaction was quantitated by [^35S] radiolabeled guanosine-5′-O-(3-thiotriphosphate) ([^35S]GTPγS) binding in COS-7 cells transiently transfected with each alpha-2AAR construct and Giα2. […] Nonspecific binding was measured in the presence of 10 μM GTPγS.

[2] = target: T2, wild-type Asn251 alpha-2AAR (Homo sapiens, UniProt P08913); conditions: 5.0 μM forskolin, no agonist
T2 sequence (P08913 16-465): T1 sequence (P08913 16-465 N266K) with K251N
Description: (§1) Alpha-2AAR inhibition of adenylyl cyclase was determined in membrane preparations from CHO cells stably expressing the two receptors using methods similar to those previously described (18). […] Reactions were terminated by the addition of a stop solution containing excess ATP and cAMP and ˜100,000 dpm of [^3H]cAMP. Labeled cAMP was isolated by gravity chromatography over alumina columns with [^3H]cAMP used to quantitate column recovery. […] Results are expressed as percent inhibition of forskolin stimulated activity.

[3] = target: T1, Lys251 alpha-2AAR
Description: as §1

[4] = target: T3, wild-type alpha-2BAR (Homo sapiens, UniProt P18089); experiment: Inhibition of forskolin stimulated adenylyl cyclase and desensitization, CHO membranes; type: biochemical; parameters: The human receptor consists of 450 amino acids; expressed in transfected cells
T3 sequence (P18089 1-450): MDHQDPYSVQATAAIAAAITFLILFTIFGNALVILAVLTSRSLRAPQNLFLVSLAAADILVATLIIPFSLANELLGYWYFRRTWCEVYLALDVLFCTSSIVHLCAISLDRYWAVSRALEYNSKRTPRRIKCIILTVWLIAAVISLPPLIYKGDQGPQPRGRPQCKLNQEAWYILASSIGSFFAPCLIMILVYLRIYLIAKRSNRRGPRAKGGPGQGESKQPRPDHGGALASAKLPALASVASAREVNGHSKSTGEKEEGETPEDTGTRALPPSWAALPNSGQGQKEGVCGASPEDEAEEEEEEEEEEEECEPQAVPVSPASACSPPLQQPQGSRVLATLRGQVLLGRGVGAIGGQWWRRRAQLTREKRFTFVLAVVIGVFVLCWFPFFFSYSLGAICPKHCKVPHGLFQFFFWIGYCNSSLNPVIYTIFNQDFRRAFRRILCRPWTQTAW
Description: For desensitization experiments, cells were pretreated for 30 min at 37° with media alone or with media containing 10 μM norepinephrine, placed on ice, and washed five times with cold PBS prior to membrane preparation. Desensitization of alpha-2BAR is manifested by a shift to the right in the dose-response curve for the inhibition of adenylyl cyclase (i.e., increase in EC50) without a significant change in the maximal response (17-19). To quantitate the magnitude of this desensitization, the inhibitory response under control conditions at a submaximal concentration of agonist (the EC50) in the assay was determined from the curve and compared to the response to this same concentration from membranes derived from cells exposed to norepinephrine. This method has been previously validated (26) in several G protein coupled receptor systems.

[5] = target: T3, wild-type alpha-2BAR; conditions: read-out: [125I]-aminoclonidine saturation binding KD
[6] = target: T4, wild-type alpha-2CAR (Homo sapiens, UniProt P18825, L239R/R446P/S401I); conditions: 10 μM epinephrine, 5 min; 806±140 fmol/mg
T4 sequence (P18825 1-462 L239R/S401I/R446P): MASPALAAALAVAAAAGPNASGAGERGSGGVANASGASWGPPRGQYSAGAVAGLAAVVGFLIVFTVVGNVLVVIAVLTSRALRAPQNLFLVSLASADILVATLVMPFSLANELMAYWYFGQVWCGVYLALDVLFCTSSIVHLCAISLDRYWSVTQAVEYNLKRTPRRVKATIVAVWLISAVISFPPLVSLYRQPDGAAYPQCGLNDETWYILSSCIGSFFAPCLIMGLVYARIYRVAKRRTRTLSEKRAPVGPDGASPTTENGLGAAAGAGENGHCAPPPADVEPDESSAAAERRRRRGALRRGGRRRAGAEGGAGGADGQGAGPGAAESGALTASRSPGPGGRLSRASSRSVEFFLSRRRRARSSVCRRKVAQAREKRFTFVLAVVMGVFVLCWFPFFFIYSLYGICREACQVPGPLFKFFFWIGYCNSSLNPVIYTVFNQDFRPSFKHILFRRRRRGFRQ

[7] = target: T4, wild-type alpha-2CAR; conditions: 10 μM epinephrine; thrombin 1 unit/ml
[8] = target: T4, wild-type alpha-2CAR; experiment: Inhibition of forskolin stimulated adenylyl cyclase, CHO membranes; type: biochemical; parameters: expressed in transfected cells; membranes or intact cells; conditions: lower expressing line 565±69 fmol/mg
Description: (§2) Reactions were terminated by the addition of a stop solution containing excess ATP and cAMP and ˜100,000 dpm of [^3H]cAMP. Labeled cAMP was isolated by gravity chromatography over alumina columns with [^3H]cAMP used to quantitate column recovery. […] Results are expressed as percent inhibition of forskolin stimulated activity.

[9] = target: T5, wild-type alpha-2CAR (Homo sapiens, UniProt P18825); experiment: as above; type: biochemical
T5 construct: expressed in transfected cells; membranes or intact cells
T5 sequence (P18825 1-462 L239R/S401I/R446P): T4 sequence (P18825 1-462 L239R/S401I/R446P)
Description: as §2

SMILES: CCN1CCc2nc(N)oc2CC1 [BHT-933]
- enhanced [35S]GTPγS binding for Lys251 as compared to the Asn251 receptor [1]: 45%

SMILES: C=C[C@@]1(C)CC(=O)[C@]2(O)[C@@]3(C)[C@@H](O)CCC(C)(C)[C@@H]3[C@H](O)[C@H](OC(C)=O)[C@@]2(C)O1 [Forskolin, forskolin]
- Forskolin adenylyl cyclase activity [2]: 32.7 ± 4.0 pmol/min/mg
- Forskolin adenylyl cyclase activity ([3]; 5.0 μM forskolin, no agonist): 31.6 ± 6.5 pmol/min/mg
- Forskolin adenylyl cyclase activity ([4]; forskolin 5 μM, no agonist): 15.1 ± 0.9 pmol/min/mg

SMILES: Brc1c(NC2=NCCN2)ccc2nccnc12 [UK 14304]
- enhanced [35S]GTPγS binding for Lys251 as compared to the Asn251 receptor [1]: ~40%

SMILES: Nc1cc(Cl)c(NC2=NCCN2)c(Cl)c1I [[^125I]-aminoclonidine, aminoclonidine]
- Kd [5]: 1.33 ± 0.12 nM

SMILES: CNC[C@H](O)c1ccc(O)c(O)c1 [epinephrine]
- accumulation of inositol phosphates over basal [6]: 30±3%
- MAP kinase stimulation as a percent of the thrombin response [7]: 128±10.0%
- inhibition of adenylyl cyclase [8]: 73±2.4%

SMILES: N=C(N)N/N=C/c1c(Cl)cccc1Cl [guanabenz]
- enhanced [35S]GTPγS binding for Lys251 as compared to the Asn251 receptor [1]: 72%

SMILES: NC[C@H](O)c1ccc(O)c(O)c1 [norepinephrine]
- EC50 [9]: 219 ± 13.7 nM
- enhanced [35S]GTPγS binding for Lys251 as compared to the Asn251 receptor [1]: ~40%
- EC50 [4]: 7.9 ± 2.1 nM
- Max Inhibition (%) of forskolin stimulated adenylyl cyclase ([4]; 626±54 fmol/mg): 28.5 ± 1.6%
- Desensitization (%) ([4]; after 10 μM norepinephrine 30 min): ~54%
- Submax inhibition (%) Ctrl ([4]; agonist at the EC50 of control membranes, cells pretreated with media alone): 16.5 ± 3.9%
- Submax inhibition (%) NE ([4]; same agonist concentration, cells pretreated with 10 μM norepinephrine 30 min): 7.6 ± 2.3 %

SMILES: Cc1cc(C(C)(C)C)c(O)c(C)c1CC1=NCCN1 [oxymetazoline]
- augmented function of Lys251 compared to the Asn251 receptor ([3]; adenylyl cyclase inhibition): ~40%
